Test [1] concerns PC-9 cells (EGFR Ex19Del). In words: Potency Assay: pERK (SOS1 pERK IC50 Assay, AlphaLISA SureFire Ultra p-ERK1/2). It is filed as cell-based. The following applies: Homo sapiens, read-out: SOS1 pERK IC50. A digest of the protocol: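 Cellular pERK1/2 by AlphaLISA SureFire Ultra after 1 h compound exposure (37° C., highest concentration 10 μM, 3-fold steps, duplicates) of EGFR Ex19Del PC-9 cells seeded the day before. A 4-parameter fit of signal versus log concentration gives IC50.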
(In general: Bead proximity is the source of the signal in Alpha formats.)

Test [2] has as its target T1, SOS1 catalytic domain (residues 564-1049) (Homo sapiens, UniProt Q07889).
T1 sequence (Q07889 564-1049): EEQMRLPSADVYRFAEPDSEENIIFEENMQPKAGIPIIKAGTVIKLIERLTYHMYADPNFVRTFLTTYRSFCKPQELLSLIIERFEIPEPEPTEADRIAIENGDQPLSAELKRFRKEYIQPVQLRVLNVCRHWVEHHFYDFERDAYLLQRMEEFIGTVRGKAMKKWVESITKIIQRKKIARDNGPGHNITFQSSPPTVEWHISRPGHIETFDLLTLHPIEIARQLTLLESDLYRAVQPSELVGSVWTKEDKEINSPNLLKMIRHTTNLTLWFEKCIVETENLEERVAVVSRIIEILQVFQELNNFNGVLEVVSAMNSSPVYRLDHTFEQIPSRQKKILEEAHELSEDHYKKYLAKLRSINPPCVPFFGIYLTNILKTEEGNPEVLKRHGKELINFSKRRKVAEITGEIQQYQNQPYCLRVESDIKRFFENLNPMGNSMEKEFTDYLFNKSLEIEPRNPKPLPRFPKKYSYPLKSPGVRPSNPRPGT
In words: Potency Assay: binding affinity to SOS1 using Surface Plasmon Resonance (SPR). Also on record: SOS1 catalytic domain (residues 564-1049) immobilized on a sensor chip. The following applies: immobilized SOS1 catalytic domain (residues 564-1049), read-out: SOS1 SPR Equilibrium Kd. A digest of the protocol: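 Kd was obtained by plotting binding response, taken just before association ended, versus compound concentration on a Biacore 8K. Compounds flowed at 50 μL/min over streptavidin-captured avi-SOS1 catalytic domain (~6000 RU), followed by buffer dissociation; HEPES 0.01 M/NaCl 0.15 M/0.05% P20 buffer, double-referenced.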

Test [3] addresses T1, SOS1 catalytic domain (residues 564-1049). In words: Mode of Action Assay: inhibition of SOS1 nucleotide exchange activity (SOS1 TR-FRET IC50 Assay). On the technique in general: Time-resolved FRET reads energy transfer from a long-lived donor to a nearby acceptor.
[4] abbreviates: PC-9 cells (EGFR Ex19Del), 1 hour incubation, AlphaLISA p-ERK1/2.

The record followed here is patent US20230096028A1, “BICYCLIC HETEROCYCLYL COMPOUNDS AND USES THEREOF” (Revolution Medicines, Inc., priority 2019, published 2023).

Like-named read-outs stand apart in the source and are kept apart here. Where only a bound is given, the exact number is not on record here.

With `C[C@@H](Nc1nc(Cl)nc2c1CC(N1CCN(C3CC3)CC1)CC2)c1cccc(C(F)(F)CO)c1` (some centres unmarked) [Example 434], the IC50 in test [1] (setting [4]) and in test [3] was below 1 µM in each case. Further, in test [2], the Kd (in general, a measure of binding affinity in units of concentration) is below 0.4 µM.
As for `C[C@@H]1CN(C(=O)N2Cc3nc(Cl)nc(N[C@H](C)c4cccc(C(F)F)c4F)c3C2)C[C@H](C)N1C` [Example 397], the IC50 in test [1] (setting [4]) and in test [3] was below 1 µM each time. Also, in test [2], the Kd was below 0.4 µM.
With `C[C@@H](Nc1nc(Cl)nc2c1CN(C(=O)C1(C#N)CCNCC1)C2)c1cccc(C(F)F)c1F` [Example 294], the IC50 in test [1] (setting [4]) and in test [3] was below 1 µM throughout. Moreover, in test [2], the Kd is below 0.4 µM.
For the molecule `C[C@@H](Nc1nc(Cl)nc2c1CN(C(=O)N1CCOCC1)C2)c1cccc2c(F)coc12` [Example 468, [2-chloro-4-[[(1R)-1-(3-fluorobenzofuran-7-yl)ethyl]amino]-5,7-dihydropyrrolo[3,4-d]pyrimidin-6-yl]-morpholino-methanone], the IC50 in test [1] (setting [4]) and in test [3] was below 1 µM in each case. In addition, the Kd in test [2] is below 0.4 µM.
With `C[C@@H](Nc1nc(Cl)nc2c1CN(C(=O)C1CN(C3CCOC3)C1)C2)c1cccc(C(F)F)c1F` (some centres unmarked) [Example 295], the half-maximal inhibitory concentration (IC50) in test [1] (setting [4]) and in test [3] was below 1 µM throughout. Further, in test [2], the Kd was below 0.4 µM.
As to `C[C@@H](Nc1nc(Cl)nc2c1CN(C(=O)N1C[C@H]3CNC[C@H]3C1)C2)c1cccc(C(F)(F)F)c1` [Example 380], the IC50 (as a rule, the concentration needed to halve the response being measured) in test [1] (setting [4]) was above 1 µM; in test [3], below 1 µM. For the same molecule, the Kd in test [2] is below 0.4 µM.
The like results for `C[C@@H](Nc1nc(Cl)nc2c1CN(C(=O)C1(F)CCN(C3COC3)CC1)C2)c1cccc(C(F)F)c1F` [Example 331] were, in that order, below 1 µM, below 1 µM and below 0.4 µM.
Regarding `CNC1(C(=O)N2Cc3nc(Cl)nc(N[C@H](C)c4cccc(C(F)F)c4F)c3C2)CCOCC1` [Example 333], the IC50 in test [1] (setting [4]) and in test [3] was below 1 µM in each case. The Kd in test [2] is below 0.4 µM.
As for `C[C@@H](Nc1nc(Cl)nc2c1CN(S(=O)(=O)C1CC1)CC2)c1cc(N)cc(C(F)(F)F)c1` [Example 452], the IC50 in test [1] (setting [4]) and in test [3] was below 1 µM each time. Further, in test [2], the Kd was below 0.4 µM.
`C[C@@H](Nc1nc(Cl)nc2c1CN(S(=O)(=O)N1CCN(C)CC1)CC2)c1cc(N)cc(C(F)(F)F)c1` [Example 184]: the IC50 in test [1] (setting [4]) and in test [3] was below 1 µM throughout. For the same molecule, in test [2], the Kd was below 0.4 µM.
Regarding `C[C@@H](Nc1nc(Cl)nc2c1CN(C(=O)N1CCOC(c3ccncc3)C1)C2)c1cc(N)cc(C(F)(F)F)c1` (some centres unmarked) [Example 145], the IC50 in test [1] (setting [4]) and in test [3] was below 1 µM each time. Also, the Kd in test [2] was below 0.4 µM.
For `COC1(C(=O)N2Cc3nc(Cl)nc(N[C@H](C)c4cccc(C(F)F)c4F)c3C2)CN(C2COC2)C1` [Example 340], the IC50 in test [1] (setting [4]) and in test [3] was below 1 µM throughout. Besides, the Kd in test [2] is below 0.4 µM.
For the molecule `COc1ccc(CC(=O)N2Cc3nc(Cl)nc(N[C@H](C)c4cc(N)cc(C(F)(F)F)c4)c3C2)cc1OC` [Example 102], the IC50 in test [1] (setting [4]) is below 1 µM; in test [3], above 1 µM. In test [2], the Kd was above 0.4 µM.
The like results for `COC1(C(=O)N2Cc3nc(Cl)nc(N[C@H](C)c4cccc(C(F)F)c4F)c3C2)CCN(CCF)CC1` [Example 343] were, in that order, below 1 µM, below 1 µM and below 0.4 µM.
On to `C[C@@H](Nc1nc(Cl)nc2c1CN(C(=O)N1CCOCC1)C2)c1cccc(C(F)(F)COC2CC2)c1F` [Example 469, [2-chloro-4-[[(1R)-1-[3-[2-(cyclopropoxy)-1,1-difluoro-ethyl]-2-fluoro-phenyl]ethyl]amino]-5,7-dihydropyrrolo[3,4-d]pyrimidin-6-yl]-morpholino-methanone], for which the IC50 in test [1] (PC-9, 1 h) was below 1 µM; in test [3] it was below 1 µM. Also, the Kd in test [2] was below 0.4 µM.
`C[C@@H](Nc1nc(Cl)nc2c1CN(C(=O)N1CC3CCC(C1)N3)C2)c1cccc(C(F)F)c1F` [Example 388]: the 50% inhibitory concentration (IC50) in test [1] (setting [4]) and in test [3] was below 1 µM each time. For the same molecule, in test [2], the Kd is below 0.4 µM.
Take `C[C@@H](Nc1nc(Cl)nc2c1CN(C(=O)[C@H]1C[C@@H](O)C1)C2)c1cc(N)cc(C(F)(F)F)c1` [Example 260]: the IC50 in test [1] (setting [4]) and in test [3] was below 1 µM in each case. In addition, the Kd in test [2] is below 0.4 µM.
Consider `C[C@@H](Nc1nc(Cl)nc2c1CN(S(=O)(=O)C1CCNCC1)C2)c1cc(N)cc(C(F)(F)F)c1` [Example 187], for which the IC50 in test [1] (setting [4]) is above 1 µM. Further, the Kd in test [2] is below 0.4 µM.
The like results for `CCc1cc(N)cc(C(C)Nc2nc(Cl)nc3c2CN(C(=O)N2CCOCC2)C3)c1` (centres unmarked) [Example 41, [4-[1-(3-amino-5-ethyl-phenyl)ethylamino]-2-chloro-5,7-dihydropyrrolo[3,4-d]pyrimidin-6-yl]-morpholino-methanone] were, in that order, below 1 µM and below 0.4 µM.
For the molecule `C[C@@H](Nc1nc(Cl)nc2c1CN(C1CCOCC1)CC2)c1cc(N)cc(C(F)(F)F)c1` [Example 22, N-[(1R)-1-[3-amino-5-(trifluoromethyl)phenyl]ethyl]-2-chloro-6-tetrahydropyran-4-yl-7,8-dihydro-5H-pyrido[4,3-d]pyrimidin-4-amine], the IC50 in test [1] (setting [4]) is below 1 µM. The Kd in test [2] was below 0.4 µM.
The like results for `Cc1nc2c(c(N[C@H](C)c3cc(N)cc(C(F)(F)F)c3)n1)CN(C(=O)N1CC(O)C1)C2` [Example 352] were, in that order, above 1 µM and below 0.4 µM.
The like results for `CNCc1ccccc1-c1ccc(C(C)Nc2nc(Cl)nc3c2CN(C(=O)N2CCOCC2)C3)s1` (centres unmarked) [Example 39, [2-chloro-4-[1-[5-[2-(methylaminomethyl)phenyl]-2-thienyl]ethylamino]-5,7-dihydropyrrolo[3,4-d]pyrimidin-6-yl]-morpholino-methanone] were, in that order, below 1 µM and below 0.4 µM.
The like results for `Cc1nc2c(c(N[C@H](C)c3cc(N)cc(C(F)(F)F)c3)n1)CN(C(=O)N1CCN(C)CC1)C2` [Example 351] were, in that order, below 1 µM and below 0.4 µM.
Regarding `CNCc1ccccc1-c1cccc(C(C)Nc2nc(Cl)nc3c2CN(C(=O)N2CCOCC2)C3)c1` (centres unmarked) [Example 32, [2-chloro-4-[1-[3-[2-(methylaminomethyl)phenyl]phenyl]ethylamino]-5,7-dihydropyrrolo[3,4-d]pyrimidin-6-yl]-morpholino-methanone], the IC50 in test [1] (setting [4]) was below 1 µM. The Kd in test [2] was below 0.4 µM.
Consider `C[C@@H](Nc1nc(Cl)nc2c1CN(c1ncccc1N1CCOCC1)CC2)c1cc(N)cc(C(F)(F)F)c1` [Example 186, (R)—N-(1-(3-amino-5-(trifluoromethyl)phenyl)ethyl)-2-chloro-6-(3-morpholinopyridin-2-yl)-5,6,7,8-tetrahydropyrido[4,3-d]pyrimidin-4-amine], for which the IC50 in test [1] (setting [4]) was above 1 µM. Moreover, in test [2], the Kd was above 0.4 µM.
For `COC1(C(=O)N2Cc3nc(C(F)(F)CN)nc(N[C@H](C)c4cccc(C(F)F)c4F)c3C2)CCOCC1` [Example 488, 2-(2-amino-1,1-difluoroethyl)-N-[(1R)-1-[3-(difluoromethyl)-2-fluorophenyl]ethyl]-6-(4-methoxyoxane-4-carbonyl)-5H,6H,7H-pyrrolo[3,4-d]pyrimidin-4-amine], the Kd in test [2] was below 0.4 µM. Besides, in test [3], the IC50 is below 1 µM.
Regarding `C[C@@H](Nc1nnc(Cl)c2c1CN(C(=O)N1CCOCC1)C2)c1cc(N)cc(C(F)(F)F)c1` [Example 35, [1-[[(1R)-1-[3-amino-5-(trifluoromethyl)phenyl]ethyl]amino]-4-chloro-5,7-dihydropyrrolo[3,4-d]pyridazin-6-yl]-morpholino-methanone], the IC50 in test [1] (setting [4]) is above 1 µM. Besides, the Kd in test [2] was above 0.4 µM.
Turning to `COc1cncc(C(=O)N2CCc3nc(Cl)nc(N[C@H](C)c4cc(N)cc(C(F)(F)F)c4)c3C2)n1` [Example 237], in test [1] (setting [4]), the IC50 was above 1 µM. The Kd in test [2] was above 0.4 µM.
On to `Cc1nc2c(c(N[C@H](C)c3cc(N)cc(C(F)(F)F)c3)n1)CN(C)C2` [Example 43], for which the Kd in test [2] is above 0.4 µM. This molecule registered an IC50 in test [3] above 1 µM.
The like results for `CNC(=O)N1Cc2nc(C)nc(N[C@H](C)c3cc(N)cc(C(F)(F)F)c3)c2C1` [Example 122, 4-{[(1R)-1-[3-amino-5-(trifluoromethyl)phenyl]ethyl]amino}-N,2-dimethyl-5H,6H,7H-pyrrolo[3,4-d]pyrimidine-6-carboxamide] were, in that order, above 0.4 µM and above 1 µM.
